# Biological target: panel of 255 wild-type kinases (Homo sapiens, UniProt Q92918)
# Test: Kinase panel profiling at 1 µmol/L (MSA or IMAP), percentage inhibition
# Assay type: biochemical
# Details: kinase HPK1; 1 µmol/L single concentration; read-out: %-inhibition at 1 µmol/L, HPK1
smiles,measurement,value
C=CC(=O)N1CCC([C@@H]2CCNc3c(C(N)=O)c(-c4ccc(Oc5ccccc5)cc4)nn32)CC1 [zanubrutinib],inhibition at 1 µM,1.75%
